In patent US4030886A, “Saturation analysis” (The Radiochemical Centre Limited, priority 1973, dated 1977):
“And” between values parts separate entries of the source, which are not always exact repeats. Equal entries are not always repeated.

Experiments:
[1] = biological target: T1, transcortin (charcoal treated rabbit serum) (Oryctolagus cuniculus, UniProt P23775); experiment: Assay for cortisol using 2-methylseleno-1-dehydro-cortisol-21-acetate-Se75; format: binding; settings: for Counts - BKG in 300 sec: 2.5 ng label
T1 construct: charcoal treated rabbit serum; from tissue; host or cells: rabbit serum, charcoal treated
T1 sequence (P23775 1-383): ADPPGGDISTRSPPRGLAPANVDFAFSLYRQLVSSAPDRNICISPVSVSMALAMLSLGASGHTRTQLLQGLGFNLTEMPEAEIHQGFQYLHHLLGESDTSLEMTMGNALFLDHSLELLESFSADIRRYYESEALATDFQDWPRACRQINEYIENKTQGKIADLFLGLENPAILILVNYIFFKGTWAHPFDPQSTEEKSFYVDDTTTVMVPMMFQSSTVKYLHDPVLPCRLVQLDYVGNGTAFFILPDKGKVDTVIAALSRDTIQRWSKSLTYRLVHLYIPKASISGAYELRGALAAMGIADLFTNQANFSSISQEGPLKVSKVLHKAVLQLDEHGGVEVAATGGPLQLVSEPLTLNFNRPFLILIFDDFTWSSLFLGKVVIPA
Experimental: (§1) Into each glass assay tube was dispensed glycine buffer containing 1% sodium azide (pH 9.0; 5.5 ml), charcoal treated rabbit serum (50 μl), bis-2,2'-(21-acetoxy-1-dehydrocortisol)-diselenide-Se 75 (2.3 ng, sp. activity ca 6 Ci/m atom), and Sephadex G25 (1 g). […] The tubes were capped and rotated at room temperature for 1 hour using a blood cell suspension mixer. After this time an aliquot (1 ml) of the supernatant liquid was withdrawn from each tube and counted for 300 seconds using an NE8311 gamma counter.
Into each glass assay tube was dispensed 0.05M phosphate buffer containing sodium azide 1% (pH 7.4; 6 ml), charcoal treated rabbit serum (50 μl), 2-methylseleno-1-dehydrocortisol-21-acetate-Se75) (2.5 ng; sp. activity ca 3 Ci/m atom), and Sephadex G25 (1 g).
The assay procedure was identical with that described above.

[2] = biological target: T1, transcortin (charcoal treated rabbit serum); experiment: Assay for cortisol using Se-75 labelled bis-2,2'-(21-acetoxy-1-dehydrocortisol)-diselenide (competitive protein binding, Sephadex G25 separation); settings: 2.3 ng label, 1 ml supernatant
Experimental: as §1

[3] = biological target: T1, transcortin (charcoal treated rabbit serum); experiment: Assay for cortisol - the use of β-mercaptoethanol in situ, tubes stored before use; format: binding
Experimental: as §1
Bis-2,2'-(21-acetoxy-1-dehydrocortisol)-diselenide-Se75 (100ng) in ethanol (10 ul) was added with stirring to a solution of β-mercaptoethanol (20 μl) in 0.05M phosphate buffer (pH 7.4; 1 ml). The mixture was left at room temperature for 20 minutes and then was added to a solution of 0.05M phosphate buffer (pH 7.4; 480 ml) containing sodium azide (1%) and charcoal treated rabbit serum (2 ml). After thorough mixing this solution was dispensed (in 6 ml aliquots) into glass assay tubes each containing Sephadex G25 (1 g). The tubes were capped and stored at room temperature until required, when the assay was then carried out as described above.

[4] = system: Antisera raised in rabbits to testosterone 3-carboxymethyloxime-BSA; experiment: Radioimmunoassay for testosterone, antiserum dilution curve; format: binding, rabbit; settings: for % Bound: 25pg label per assay tube
Experimental: Antisera were raised in rabbits to testosterone 3-carboxymethyloxime-BSA.
SE75 labelled 2-methylseleno-1-dehydrotestosterone (specific activity 15-20 Ci/mmol) was prepared by base catalysed hydrolysis of 2-methylseleno 1-dehydrotestosterone acetate which is described in our prior patent specification.
Antiserum dilution curves were set up in the usual way using antiserum and labelled testosterone as described above.
Typical figures for the antiserum dilution curves when 25pg labelled testosterone was used per assay tube are: […]

[5] = system: antiserum raised to digoxin; experiment: Dilution curve for 3-methylselenodigoxigenin; format: binding; settings: for Mean Count: 200 μl supernatant
Experimental: An antiserum dilution curve for 3-methylselenodigoxigenin-Se 75 (specific activity 16 Ci/m mol) in buffered saline (0.15M NaCl, 0.05M KH2 PO4, 0.1% Na N3, and 0.1% BSA) was made up at a concentration of 0.0228 n mol/ml. Dilutions of antiserum raised to digoxin were prepared in assay buffer at 1/50, 1/100, 1/200, 1/400, 1/500, 1/800, 1/1000. Tubes were set up in duplicate for total activity, blanks, and antiserum dilutions as follows: total activity, 50 μl ^75 Se compound and 250 μl assay buffers; blanks, 50 μl ^75 Se compound and 150 μl assay buffer; antiserum dilutions, 50 μl ^75 Se compound, 100 μl buffer and 50 μl antiserum. The tubes were incubated for 30 minutes after which 100 μl of charcoal (0.65 g Norit OL in 50 ml assay buffer + 1 gram BSA) was added to each tube except the totals. After 10 minutes incubation the tubes were centrifuged and a 200 μl sample of the supernatant was counted.

[6] = biological target: T2, Transcortin from rabbit serum (Oryctolagus cuniculus, UniProt P23775); experiment: CPB assay for cortisol using Se-75 labelled bis-2,2'-(1-dehydrocorticosterone)-diselenide; format: binding
T2 construct: Transcortin from rabbit serum; from tissue; host or cells: rabbit serum
T2 sequence (P23775 1-383): T1 sequence (P23775 1-383)
Experimental: as §1
Se-75 labelled bis-2,2'-(1-dehydrocorticosterone)-diselenide was prepared by base hydrolysis of Se75-labelled bis-2,2'-(21-acetoxy-1-dehydrocorticosterone) diselenide which is described in our U.S. Ser. No. 426,695.
Using this radiolabelled material an assay for cortisol was set up as described in Example 1. Transcortin from rabbit serum was used as the source of binding protein and Sephadex G25 was used to separate protein free and bound material.
Typical results obtained using standard solutions of unlabelled cortisol to displace the labelled Δ^1 -corticosterone diselenide are: […]

[7] = system: antiserum raised in rabbits against estriol-6-CMO-BSA; experiment: Assay for estriol using 2-(methylseleno)-ethylamine-Se75 conjugate of estriol-6CMO; format: binding, rabbit; settings: 300 pg label, antiserum 1:200
Experimental: Into each assay tube was dispensed 0.1M phosphate buffer containing 5% human serum (pH 7.0; 200 μl), antiserum raised in rabbits against estriol-6-CMO-BSA and diluted 1 : 200 in 0.1M phosphate buffer containing 5% human serum (200 μl), and 2-(methylseleno)-Ethylamine-Se 75 conjugate of estriol-6-CMO (300 pg; 18 Ci/m mol).

For `C[75Se]C1=C[C@@]2(C)C(=CC1=O)CC[C@@H]1[C@@H]2[C@@H](O)C[C@@]2(C)[C@H]1CC[C@]2(O)C(=O)COC(C)=O` [2-methylseleno-1-dehydrocortisol-21-acetate-Se75], which “Counts - BKG in 300 sec” value ([1]; cortisol standard 0 μg/100 ml) is on record?
The value was 37447 and 37551.

What about the “Counts - BKG in 300 sec” value ([1]; cortisol standard 2 μg/100 ml) of the same compound?
Its value is 36495 and 36981.

What about the “Counts - BKG in 300 sec” value ([1]; cortisol standard 4 μg/100 ml) of the same compound?
The value was 35381 and 34565.

What about the “Counts - BKG in 300 sec” value ([1]; cortisol standard 8 μg/100 ml) of the same compound?
The value was 31090 and 32353.

What about the “Counts - BKG in 300 sec” value ([1]; cortisol standard 16 μg/100 ml) of the same compound?
Its value is 28011 and 28180.

What about the “Counts - BKG in 300 sec” value ([1]; cortisol standard 32 μg/100 ml) of the same compound?
Its value is 24135 and 24340.

And the “Counts - BKG in 300 sec” value ([1]; cortisol standard 64 μg/100 ml)?
The value was 21601 and 21777.

And the “dose-response curve of the cortisol assay” value ([1]; methylseleno- compared with the diseleno- derivative as label)?
The value was “steeper dose-response curve”.

Which results are given for `CC(=O)OCC(=O)[C@@]1(O)CC[C@H]2[C@@H]3CCC4=CC(=O)C([75Se][75Se]C5=C[C@@]6(C)C(=CC5=O)CC[C@@H]5[C@@H]6[C@@H](O)C[C@@]6(C)[C@H]5CC[C@]6(O)C(=O)COC(C)=O)=C[C@]4(C)[C@H]3[C@@H](O)C[C@@]21C` [bis-2,2'-(21-acetoxy-1-dehydrocortisol)-diselenide-Se 75]?
Counts - Rkgd in 300 sec ([2]; cortisol standard 0 μg/100 ml): 34672 and 33573; Counts - Rkgd in 300 sec ([2]; cortisol standard 2 μg/100 ml): 31116 and 32296; Counts - Rkgd in 300 sec ([2]; cortisol standard 4 μg/100 ml): 31129 and 31389; Counts - Rkgd in 300 sec ([2]; cortisol standard 8 μg/100 ml): 29987 and 30954; Counts - Rkgd in 300 sec ([2]; cortisol standard 16 μg/100 ml): 29141 and 29356; Counts - Rkgd in 300 sec ([2]; cortisol standard 32 μg/100 ml): 26842 and 25739; Counts - Rkgd in 300 sec ([2]; cortisol standard 64 μg/100 ml): 23746 and 25895; Counts per 100 seconds (corrected for background) ([3]; cortisol standard 2 μg/100 ml, storage time 1 day): 12814 and 13112; Counts per 100 seconds (corrected for background) ([3]; cortisol standard 2 μg/100 ml, storage time 28 days): 13007 and 12356; Counts per 100 seconds (corrected for background) ([3]; cortisol standard 4 μg/100 ml, storage time 1 day): 13012; Counts per 100 seconds (corrected for background) ([3]; cortisol standard 4 μg/100 ml, storage time 28 days): 11884; Counts per 100 seconds (corrected for background) ([3]; cortisol standard 8 μg/100 ml, storage time 1 day): 12754 and 12709; Counts per 100 seconds (corrected for background) ([3]; cortisol standard 8 μg/100 ml, storage time 28 days): 11486 and 11624; Counts per 100 seconds (corrected for background) ([3]; cortisol standard 16 μg/100 ml, storage time 1 day): 11980 and 11825; Counts per 100 seconds (corrected for background) ([3]; cortisol standard 16 μg/100 ml, storage time 28 days): 10930 and 10467; Counts per 100 seconds (corrected for background) ([3]; cortisol standard 32 μg/100 ml, storage time 1 day): 10988 and 10876; Counts per 100 seconds (corrected for background) ([3]; cortisol standard 32 μg/100 ml, storage time 28 days): 10078 and 10365; Counts per 100 seconds (corrected for background) ([3]; cortisol standard 64 μg/100 ml, storage time 1 day): 9636; Counts per 100 seconds (corrected for background) ([3]; cortisol standard 64 μg/100 ml, storage time 28 days): 9967

`C[75Se]C1=C[C@@]2(C)C(=CC1=O)CC[C@H]1[C@@H]3CC[C@H](O)[C@@]3(C)CC[C@@H]12` [2-methylseleno-1-dehydrotestosterone] was tested. Which “antiserum dilution curves compared with tritiated testosterone as label” value [4] did it give?
The value was “identical to those obtained when tritiated testosterone was used as label”.

What about the “% Bound” value ([4]; antiserum dilution 1/10^2) of the same compound?
The value was 85%.

And the “% Bound” value ([4]; antiserum dilution 1/10^3)?
Its value is 80%.

And the “% Bound” value ([4]; antiserum dilution 1/10^4)?
Its value is 45%.

And the “% Bound” value ([4]; antiserum dilution 1/10^5)?
Its value is 18%.

And the “% Bound” value ([4]; antiserum dilution 1/10^6)?
The value was 13%.

What does the source list for `C[75Se]C1CC[C@@]2(C)[C@H](CC[C@@H]3[C@@H]2C[C@@H](O)[C@]2(C)[C@@H](C4=CC(=O)OC4)CC[C@]32O)C1` (some centres unmarked) [3-methylselenodigoxigenin-Se 75]?
% of Total Counts Bound ([5]; antiserum 1/50 dilution): 97.0%; Mean Count ([5]; antiserum 1/50 dilution): 20750; % of Total Counts Bound ([5]; antiserum 1/100 dilution): 80.6%; Mean Count ([5]; antiserum 1/100 dilution): 17224; % of Total Counts Bound ([5]; antiserum 1/200 dilution): 44.3%; Mean Count ([5]; antiserum 1/200 dilution): 9489; % of Total Counts Bound ([5]; antiserum 1/400 dilution): 26.8%; Mean Count ([5]; antiserum 1/400 dilution): 5744; % of Total Counts Bound ([5]; antiserum 1/500 dilution): 21.8%; Mean Count ([5]; antiserum 1/500 dilution): 4659; % of Total Counts Bound ([5]; antiserum 1/800 dilution): 15.3%; Mean Count ([5]; antiserum 1/800 dilution): 3277; % of Total Counts Bound ([5]; antiserum 1/1000 dilution): 12.2%; Mean Count ([5]; antiserum 1/1000 dilution): 2602

Which “Counts - Bkgd” value ([6]; cortisol standard 2 μg/100 ml) does the source give for `C[C@]12C[C@H](O)[C@H]3[C@@H](CCC4=CC(=O)C([75Se][75Se]C5=C[C@@]6(C)C(=CC5=O)CC[C@@H]5[C@@H]6[C@@H](O)C[C@]6(C)[C@@H](C(=O)CO)CC[C@@H]56)=C[C@@]43C)[C@@H]1CC[C@@H]2C(=O)CO` [bis-2,2'-(1-dehydrocorticosterone)-diselenide] here?
Its value is 24700.

And the “Counts - Bkgd” value ([6]; cortisol standard 4 μg/100 ml)?
Its value is 24100.

And the “Counts - Bkgd” value ([6]; cortisol standard 8 μg/100 ml)?
The value was 22800.

What about the “Counts - Bkgd” value ([6]; cortisol standard 16 μg/100 ml) of the same compound?
The value was 21800.

And the “Counts - Bkgd” value ([6]; cortisol standard 32 μg/100 ml)?
The value was 21200.

What about the “Counts - Bkgd” value ([6]; cortisol standard 64 μg/100 ml) of the same compound?
The value was 20700.

How did the “% of total counts bound minus blanks” value ([7]; 0 ng estriol added) turn out when `C[75Se]CCNC(=O)CON=C1C[C@@H]2[C@H](CC[C@]3(C)[C@@H](O)[C@H](O)C[C@@H]23)c2ccc(O)cc21` [2-(methylseleno)-ethylamine - Se 75 conjugate of estriol-6-carboxymethyloxime] was run?
Its value is 45.9%.

What about the “% of total counts bound minus blanks” value ([7]; 1.5 ng estriol added) of the same compound?
The value was 37.5%.

What about the “% of total counts bound minus blanks” value ([7]; 3.1 ng estriol added) of the same compound?
Its value is 35.6%.

What about the “% of total counts bound minus blanks” value ([7]; 6.3 ng estriol added) of the same compound?
Its value is 32.0%.

What about the “% of total counts bound minus blanks” value ([7]; 12.5 ng estriol added) of the same compound?
The value was 29.2%.

And the “% of total counts bound minus blanks” value ([7]; 25 ng estriol added)?
Its value is 24.7%.
